Test [1] deals with T1, human orexin-1 receptor (Homo sapiens, UniProt O43613).
T1 construct: expressed in transfected cells; host or cells: Chinese hamster ovary (CHO) cells
T1 sequence (O43613 1-425): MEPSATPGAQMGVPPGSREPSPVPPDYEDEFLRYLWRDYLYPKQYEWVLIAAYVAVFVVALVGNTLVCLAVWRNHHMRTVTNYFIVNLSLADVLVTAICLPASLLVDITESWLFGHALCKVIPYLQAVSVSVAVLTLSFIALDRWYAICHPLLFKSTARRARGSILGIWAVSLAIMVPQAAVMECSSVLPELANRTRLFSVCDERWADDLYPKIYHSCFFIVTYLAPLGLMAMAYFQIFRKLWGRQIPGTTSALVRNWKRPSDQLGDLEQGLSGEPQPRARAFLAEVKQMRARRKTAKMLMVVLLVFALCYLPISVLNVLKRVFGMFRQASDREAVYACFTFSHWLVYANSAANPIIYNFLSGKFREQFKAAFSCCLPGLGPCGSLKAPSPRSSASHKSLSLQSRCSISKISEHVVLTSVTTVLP
The experiment in a line: FLIPR calcium assay of orexin receptor antagonistic activity, CHO cells expressing human orexin-1 receptor. The settings on record: read-out: OX1 IC50. Type of test: cell-based. How it is done:
(§1) The orexin receptor antagonistic activity of the compounds of formula (I) is determined in accordance with the following experimental method.
(§2) Chinese hamster ovary (CHO) cells expressing the human orexin-1 receptor and the human orexin-2 receptor, respectively, are grown in culture medium (Ham F-12 with L-Glutamine) containing 300 μg/ml G418, […] penicillin, 100 μg/ml streptomycin and 10% heat inactivated fetal calf serum (FCS). The cells are seeded at 20′000 cells/well into 384-well black clear bottom sterile plates (Greiner). The seeded plates are incubated overnight at 37° C. in 5% CO2.
(§3) Human orexin-A as an agonist is prepared as 1 mM stock solution in MeOH:water (1:1), diluted in HBSS containing 0.1% bovine serum albumin (BSA), NaHCO3: 0.375 g/l and 20 mM HEPES for use in the assay at a final concentration of 3 nM.
(§4) Antagonists are prepared as 10 mM stock solution in DMSO, then diluted in 384-well plates using DMSO followed by a transfer of the dilutions into in HBSS containing 0.1% bovine serum albumin (BSA), NaHCO3: 0.375 g/l and 20 mM HEPES. On the day of the assay, 50 μl of staining buffer (HBSS containing 1% FCS, 20 mM HEPES, NaHCO3: 0.375 g/l, 5 mM probenecid (Sigma) and 3 μM of the fluorescent calcium indicator fluo-4 AM (1 mM stock solution in DMSO, containing 10% pluronic) is added to each well. The 384-well cell-plates are incubated for 50 min at 37° C. in 5% CO2 followed by equilibration at rt for 30-120 min before measurement.
(§5) Within the Fluorescent Imaging Plate Reader (FLIPR Tetra, Molecular Devices), antagonists are added to the plate in a volume of 10 μl/well, incubated for 10 min and finally […] of agonist is added. Fluorescence is measured for each well at 1 second intervals, and the height of each fluorescence peak is compared to the height of the fluorescence peak induced by 3 nM orexin-A with vehicle in place of antagonist. For each antagonist, the IC50 value (the concentration of compound needed to inhibit 50% of the agonistic response) is determined and may be normalized using the obtained IC50 value of a on-plate reference compound (normalized values in Table 1 are indicated by an asterisk *). Optimized conditions were achieved by adjustment of pipetting speed and cell splitting regime. The calculated IC50 values of the compounds may fluctuate depending on the daily cellular assay performance. Fluctuations of this kind are known to those skilled in the art.

Test [2] concerns the target T2, human orexin-2 receptor (Homo sapiens, UniProt O43614).
T2 construct: expressed in transfected cells; host or cells: Chinese hamster ovary (CHO) cells
T2 sequence (O43614 1-444): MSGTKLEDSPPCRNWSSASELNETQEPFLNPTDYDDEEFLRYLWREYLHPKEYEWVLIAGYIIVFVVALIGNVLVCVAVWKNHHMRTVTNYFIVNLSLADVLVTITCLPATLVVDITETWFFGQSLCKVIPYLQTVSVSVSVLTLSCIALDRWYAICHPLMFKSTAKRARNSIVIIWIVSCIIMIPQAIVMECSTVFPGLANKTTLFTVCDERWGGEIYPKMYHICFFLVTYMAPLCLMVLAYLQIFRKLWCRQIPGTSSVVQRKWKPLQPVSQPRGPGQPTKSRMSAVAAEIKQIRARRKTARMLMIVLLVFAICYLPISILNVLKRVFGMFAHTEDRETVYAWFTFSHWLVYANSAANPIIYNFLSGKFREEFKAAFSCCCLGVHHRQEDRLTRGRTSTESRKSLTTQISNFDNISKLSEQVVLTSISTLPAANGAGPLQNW
The experiment in a line: FLIPR calcium assay of orexin receptor antagonistic activity, CHO cells expressing human orexin-2 receptor. Type of test: cell-based. The settings on record: read-out: OX2 IC50. On the procedure:
as §1, §2, §3, §4, §5

The subject of test [3] is rat model of post-traumatic stress disorder. The settings on record: cited from earlier work.
For test [4], the system named is rat model. The settings on record: cited from earlier work.
Test [5] deals with rat. The settings on record: cited from earlier work.
[6] abbreviates: 3 nM orexin-A as agonist, not normalized, *2/*3 = geometric mean of n = 2/3 values.

Read-outs that look alike come from different tables or passages of the source.

For orientation: IC50 means the concentration at which inhibition is half-maximal. As to `O=C(NCC1SCCN1C(=O)c1nc(C2CC2)sc1-c1cccc(F)c1)c1cccc2c1CCO2` (racemic) [Example 116, rac-2,3-Dihydro-benzofuran-4-carboxylic acid {3-[2-cyclopropyl-5-(3-fluoro-phenyl)-thiazole-4-carbonyl]-thiazolidin-2-ylmethyl}-amide], the IC50 in test [1] (setting [6]) stood at 2 nM; in test [2] (setting [6]), 5 nM.
For the compound `Cc1nc(C(=O)N2CCSC2CNC(=O)c2cccc3ncsc23)c(-c2ccc(C)c(F)c2)s1` (racemic) [Example 120, rac-Benzothiazole-7-carboxylic acid {3-[5-(3-fluoro-4-methyl-phenyl)-2-methyl-thiazole-4-carbonyl]-thiazolidin-2-ylmethyl}-amide], the values for the IC50 in test [1] (setting [6]) and in test [2] (setting [6]) were 8 nM and 7 nM, respectively.
For `Cc1nc(C(=O)N2CCSC2CNC(=O)c2nn(C)c3ccccc23)c(-c2ccc(C)c(F)c2F)s1` (racemic) [Example 126, rac-1-Methyl-1H-indazole-3-carboxylic acid {3-[5-(2,3-difluoro-4-methyl-phenyl)-2-methyl-thiazole-4-carbonyl]-thiazolidin-2-ylmethyl}-amide], the IC50 in test [1] (setting [6]) and in test [2] (setting [6]) was 11 nM each time.
Regarding `Cc1cccc(-c2sc(N(C)C)nc2C(=O)N2CCSC2CNC(=O)c2cccc3c2CCO3)c1` (racemic) [Example 128, rac-2,3-Dihydro-benzofuran-4-carboxylic acid [3-(2-dimethylamino-5-m-tolyl-thiazole-4-carbonyl)-thiazolidin-2-ylmethyl]-amide], the IC50 in test [1] (setting [6]) was 12 nM; in test [2] (setting [6]), 14 nM.
`CCc1onc(C)c1C(=O)NCC1SCCN1C(=O)c1nc(C)sc1-c1cccc(C)c1` (racemic) [Example 140, rac-5-Ethyl-3-methyl-isoxazole-4-carboxylic acid [3-(2-methyl-5-m-tolyl-thiazole-4-carbonyl)-thiazolidin-2-ylmethyl]-amide]: the IC50 in test [1] and in test [2] was 9 nM throughout.
Turning to `Cc1cccc(-c2sc(C)nc2C(=O)N2CCSC2CNC(=O)c2cnn(C)c2C(F)(F)F)c1` (racemic) [Example 142, rac-1-Methyl-5-trifluoromethyl-1H-pyrazole-4-carboxylic acid [3-(2-methyl-5-m-tolyl-thiazole-4-carbonyl)-thiazolidin-2-ylmethyl]-amide], the IC50 was 5 nM in test [1] and 12 nM in test [2].
With `COc1ncccc1C(=O)NCC1SCCN1C(=O)c1nc(C)sc1-c1cccc(C)c1` (racemic) [Example 160, rac-2-Methoxy-N-[3-(2-methyl-5-m-tolyl-thiazole-4-carbonyl)-thiazolidin-2-ylmethyl]-nicotinamide], the IC50 is 4 nM in test [1] and 15 nM in test [2].
The like results for `Cc1cccc(-c2sc(C)nc2C(=O)N2CCSC2CNC(=O)c2cccc(C(F)(F)F)n2)c1` (racemic) [Example 162, rac-6-Trifluoromethyl-pyridine-2-carboxylic acid [3-(2-methyl-5-m-tolyl-thiazole-4-carbonyl)-thiazolidin-2-ylmethyl]-amide] were, in that order, 5 nM and 41 nM.
For `Cc1cccc(-c2sc(C)nc2C(=O)N2CCSC2CNC(=O)c2nc(C)oc2C)c1` (racemic) [Example 163, rac-2,5-Dimethyl-oxazole-4-carboxylic acid [3-(2-methyl-5-m-tolyl-thiazole-4-carbonyl)-thiazolidin-2-ylmethyl]-amide], the IC50 in test [1] is 5 nM; in test [2], 8 nM.
On to `Cc1cccc(-c2sc(C)nc2C(=O)N2CCSC2CNC(=O)c2sc(C)nc2C)c1` (racemic) [Example 165, rac-2,4-Dimethyl-thiazole-5-carboxylic acid [3-(2-methyl-5-m-tolyl-thiazole-4-carbonyl)-thiazolidin-2-ylmethyl]-amide], for which the IC50 in test [1] was found to be 6 nM; in test [2], 5 nM.
For `CNC(=O)[C@@H](c1ccccc1)N1CCc2cc(OC)c(OC)cc2[C@@H]1CCc1ccc(C(F)(F)F)cc1` [(2R)-2-{(1S)-6,7-dimethoxy-1-[2-(4-trifluoromethyl-phenyl)-ethyl]-3,4-dihydro-1H-isoquinolin-2-yl}-N-methyl-2-phenyl-acetamide], the “activity in model of post-traumatic stress disorder” value in test [3] was “active”. The memory function entry in test [4] is listed as “enhance memory function”. Moreover, in test [5], the “alertness (active wake and locomotion)” value is “decrease alertness”; the “time spent in REM and NREM sleep” value was “dose-dependently increase the time spent in both REM and NREM sleep”.

The record behind these values is patent US20110105491A1, “THIAZOLIDINE COMPOUNDS AS OREXIN RECEPTOR ANTAGONISTS” (priority 2008, published 2011).
